Measurements as given in ChEMBL document CHEMBL3880429, “Aminopyrimidine compounds and their salts, process for preparation and pharmaceutical use thereof” (2012).
Calls of active or inactive are those of the source. The rule behind the calls is not given here.

Experiments:
[1] = Antitumor activity against human K562 cells xenografted in BALB/cA nude mouse assessed as tumor growth at 150 mg/kg, po qd administered via gavage for 21 days relative to control; type: functional
[2] = target: Bcr/Abl fusion protein (Homo sapiens) (UniProt P00519+P11274); assay: Potency index, ratio of imatinib IC50 to compound IC50 for Bcr-Abl in human K562 cells; type: cell-based
[3] = Ratio of IC50 for human HL60 cells to IC50 for Bcr-Abl in human K562 cells
K562 [4] = assay: Antitumor activity against human K562 cells xenografted in po dosed BALB/cA nude mouse assessed as tumor growth inhibition administered as qd via gavage for 21 days; type: functional, organism-based
[5] = Cytotoxicity against human HL60 cells assessed as inhibition of cell proliferation after 48 hrs by MTT assay; type: functional, cell-based; details: HL-60, 48 h
[6] = Antitumor activity against human K562 cells xenografted in BALB/cA nude mouse assessed as tumor growth at 37.5 mg/kg, po qd administered via gavage for 21 days relative to control; type: functional
K562 [7] = assay: Antitumor activity against human K562 cells xenografted in BALB/cA nude mouse assessed as extinction of tumor at 150 mg/kg, po qd administered via gavage for 21 days; type: functional, organism-based

Bcr/Abl fusion protein (Homo sapiens), sequence (P00519 whole entry, looked up, the tested form may be a part): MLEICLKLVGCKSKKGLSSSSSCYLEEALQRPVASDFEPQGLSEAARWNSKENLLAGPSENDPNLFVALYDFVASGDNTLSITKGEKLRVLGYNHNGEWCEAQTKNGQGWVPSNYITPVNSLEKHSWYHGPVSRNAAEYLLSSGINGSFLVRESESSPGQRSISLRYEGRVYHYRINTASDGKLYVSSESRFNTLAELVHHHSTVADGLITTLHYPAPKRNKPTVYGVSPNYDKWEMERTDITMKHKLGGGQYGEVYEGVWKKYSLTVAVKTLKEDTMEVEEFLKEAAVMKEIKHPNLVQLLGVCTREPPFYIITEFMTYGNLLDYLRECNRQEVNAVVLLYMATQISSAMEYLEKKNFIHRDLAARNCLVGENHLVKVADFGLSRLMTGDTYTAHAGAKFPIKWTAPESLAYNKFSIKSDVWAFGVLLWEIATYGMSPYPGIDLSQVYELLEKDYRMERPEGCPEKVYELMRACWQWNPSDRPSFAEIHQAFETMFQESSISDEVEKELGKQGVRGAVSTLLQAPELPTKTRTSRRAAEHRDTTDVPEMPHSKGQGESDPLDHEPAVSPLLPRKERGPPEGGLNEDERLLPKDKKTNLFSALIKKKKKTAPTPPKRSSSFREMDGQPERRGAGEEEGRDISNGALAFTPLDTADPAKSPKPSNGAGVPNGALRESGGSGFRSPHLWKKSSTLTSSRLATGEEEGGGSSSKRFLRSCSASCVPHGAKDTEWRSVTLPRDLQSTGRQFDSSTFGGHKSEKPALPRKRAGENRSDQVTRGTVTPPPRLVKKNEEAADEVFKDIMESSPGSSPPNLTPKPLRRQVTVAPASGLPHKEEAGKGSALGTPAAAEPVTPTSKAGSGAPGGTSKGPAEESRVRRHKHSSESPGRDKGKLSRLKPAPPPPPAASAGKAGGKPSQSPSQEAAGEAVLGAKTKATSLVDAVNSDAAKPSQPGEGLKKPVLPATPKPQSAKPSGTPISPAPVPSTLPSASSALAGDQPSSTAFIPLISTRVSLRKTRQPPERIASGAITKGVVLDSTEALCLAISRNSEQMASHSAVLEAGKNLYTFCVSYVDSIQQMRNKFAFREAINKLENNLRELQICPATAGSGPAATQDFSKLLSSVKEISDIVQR
Bcr/Abl fusion protein (Homo sapiens), sequence (P11274 whole entry, looked up, the tested form may be a part): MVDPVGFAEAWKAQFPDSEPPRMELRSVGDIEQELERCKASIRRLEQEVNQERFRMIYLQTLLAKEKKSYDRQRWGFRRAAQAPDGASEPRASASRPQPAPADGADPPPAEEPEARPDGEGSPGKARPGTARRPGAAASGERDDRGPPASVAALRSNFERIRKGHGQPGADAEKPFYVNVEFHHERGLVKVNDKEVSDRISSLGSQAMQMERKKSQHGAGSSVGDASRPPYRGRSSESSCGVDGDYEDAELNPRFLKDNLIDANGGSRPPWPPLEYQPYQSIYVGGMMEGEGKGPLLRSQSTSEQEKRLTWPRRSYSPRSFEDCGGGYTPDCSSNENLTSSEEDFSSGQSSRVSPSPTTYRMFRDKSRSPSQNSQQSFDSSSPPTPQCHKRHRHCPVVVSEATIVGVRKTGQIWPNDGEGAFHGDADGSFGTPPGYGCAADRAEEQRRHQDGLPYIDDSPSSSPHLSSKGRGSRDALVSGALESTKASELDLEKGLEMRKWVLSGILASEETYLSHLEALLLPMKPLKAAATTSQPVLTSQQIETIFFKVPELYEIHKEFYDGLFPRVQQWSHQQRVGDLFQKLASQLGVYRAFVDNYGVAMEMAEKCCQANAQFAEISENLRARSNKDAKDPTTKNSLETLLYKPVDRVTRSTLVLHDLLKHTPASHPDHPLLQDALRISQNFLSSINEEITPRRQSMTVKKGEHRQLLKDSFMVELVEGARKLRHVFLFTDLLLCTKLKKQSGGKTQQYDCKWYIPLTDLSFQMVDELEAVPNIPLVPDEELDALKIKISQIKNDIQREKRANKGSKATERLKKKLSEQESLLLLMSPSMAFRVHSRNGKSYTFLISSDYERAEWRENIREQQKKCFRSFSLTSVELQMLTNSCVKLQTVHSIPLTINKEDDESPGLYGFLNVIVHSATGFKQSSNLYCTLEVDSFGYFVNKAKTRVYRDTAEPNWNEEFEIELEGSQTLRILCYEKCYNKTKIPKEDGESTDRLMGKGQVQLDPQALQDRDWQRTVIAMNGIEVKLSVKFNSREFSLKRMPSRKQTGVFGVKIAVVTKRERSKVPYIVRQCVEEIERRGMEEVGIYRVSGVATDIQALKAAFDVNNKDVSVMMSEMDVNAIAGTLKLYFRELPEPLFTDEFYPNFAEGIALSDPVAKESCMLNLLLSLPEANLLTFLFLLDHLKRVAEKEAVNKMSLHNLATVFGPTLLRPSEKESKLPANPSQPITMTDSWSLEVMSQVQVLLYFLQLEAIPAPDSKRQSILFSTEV

| SMILES | T/C [1] | Ratio IC50 [2] | Ratio IC50 [3] | TGI (K562 [4]) | IC50 [5] [µM] | T/C [6] [%] | Activity (K562 [7]) |
| --- | --- | --- | --- | --- | --- | --- | --- |
| CS(=O)(=O)O.Cc1ncc(NC(=O)c2ccc(CN3CCN(C)CC3)c(Cl)c2)cc1Nc1nccc(-c2cccnc2)n1 | 47.4% | 4 | 125 | – | – | – | – |
| CS(=O)(=O)O.Cc1ncc(NC(=O)c2ccc(CN3CCN(C)CC3)c(C(F)(F)F)c2)cc1Nc1nccc(-c2cccnc2)n1 | 0% | – | – | Dose-dependent effect | 10 | 40.4 | Active |
| CS(=O)(=O)O.Cc1ccc(NC(=O)c2ccc(CN3CCN(C)CC3)cc2)cc1Nc1nccc(-c2cccnc2)n1 [IMATINIB MESYLATE] | 34.2 - 117.7% | – | – | – | – | – | – |
